From patent US8815900B2, “Compounds and compositions for reducing lipid levels” (CVI Pharmaceuticals Limited, priority 2007, dated 2014)
Several values for one entry are separate records, joined by “and”; a condition that tells them apart may be missing. Identical values can stand only once.

Experiments:
[1] = Pharmacokinetics of CRDL in male hamsters following intravenous and oral administration; format: in vivo; conditions: for F: PO (20 mg/kg) vs IV (2 mg/kg)
Experimental: The plasma concentration of CRDL was determined in male hamsters following intravenous or oral administration. Hamsters were given CRDL at 2 mg/kg i.v. or 20 mg/kg p.o. Blood samples were collected at the indicated time points and the plasma was isolated.

[2] = system: hypercholesterolemic hamsters; assay: In vivo lipid lowering of (14R,13S)-CRDL in hamsters on high cholesterol diet; parameters: species or system Golden Syrian male hamsters; conditions: 10 mg/kg daily i.p., 17 days
Experimental: In another experiment, 18 Golden Syrian male hamsters under a high cholesterol (HC) diet were divided into two treatment groups of i.p. One group was treated with (14R,13S)-CRDL at a daily dose of 10 mg/kg and the control group received equal amount of vehicle.
The HC diet markedly damaged the liver function of the hamsters, which was evident by elevated alanine aminotransaminase (ALT) and aspartate aminotransaminase (AST) in blood. (14R,13S)-CRDL treatment ameliorated the liver function under the HC diet and lowered the serum level of ALT by 60% and lowered the serum level of AST by 30% compared to control (FIG. 10B).

[3] = system: Wister male rats under a high fat and high cholesterol diet; assay: Lipid lowering and body weight effects of (14R,13S)-CRDL hydrochloride salt in Wister rats; format: in vivo
Experimental: Male Wister rats were used as another animal model to examine the in vivo effects of (14R,13S)-CRDL in plasma lipid levels.
In one experiment, 18 Wister male rats under a high fat and high cholesterol diet were divided into 2 groups. One group was given (14R,13S)-CRDL hydrochloride salt orally at a daily dose of 75 mg/kg by an orogastric tube for 4 weeks, and the control group received daily treatment of equal amount of vehicle (0.1 M sodium phosphate, pH 3.5). Serum lipid levels were measured weekly.
At the end of treatment, Rats were sacrificed and blood and sera were collected to measure several critical parameters for liver function and kidney function. […] Kidney function and blood glucose level were not changed by the treatment (FIG. 11E).
The food intake and body weight gains were measured every week during the 4-week treatment period. […] In the first week, the amount of food consumed was decreased in CRDL-treated group. […] The ability of CRDL to activate AMPK signaling pathway to increase energy expenditure and to reduce fat accumulation likely contributes to this weight reducing effect.

[4] = system: LDLR mRNA expression in HepG2 cells; assay: LDLR mRNA expression in HepG2 cells, semi-quantitative RT-PCR; format: cell-based, Human; conditions: 8 hours, indicated doses, corrected by GAPDH mRNA (FIG. 3)
Experimental: HepG2 cells obtained from American Tissue Culture Collection (Manassas, Va., USA) were seeded in 6-well culture plates at a density of 0.8×10^6 cells/well cultured in EMEM containing 0.5% FBS and were treated with each purified compound at indicated doses for 8 hours. Total RNA was isolated, and 2 μg per sample was reverse transcribed with random primers using M-MLV (Promega) at 37° C. for 1 hour. PCR was carried out at 94° C. for 30 sec, 60° C. for 30 sec, and 72° C. for 30 sec with initial activation of the enzyme at 94° C. for 1 minute. Thirty cycles were performed for LDLR and GAPDH. PCR was performed using primers HLDLR-up and HLDLR-lo for LDLR and primers HGAPDH-up and HGAPDH-lo for GAPDH. The PCR products were separated on a 1% agarose gel and the band intensity was quantitated. LDLR mRNA levels were corrected by measuring GAPDH mRNA levels.
After the treatment, a portion of cells was harvested for total RNA, and another portion of cells was used for TG measurement. The LDLR mRNA levels were assessed by semi quantitative RT-PCR, and the cellular TG content was determined as described above.

[5] = IV (2 mg/kg), individual hamsters H1-H3, 2 mg/kg
[6] = PO (20 mg/kg), individual hamsters H4-H6, 20 mg/kg
[7] = HC diet, compared to untreated group
[8] = (14R,13S)-CRDL hydrochloride salt orally 75 mg/kg daily, 4 weeks
[9] = end of 4-week treatment, 75 mg/kg daily orally
[10] = end of 4-week treatment, 75 mg/kg daily orally, vs control group

## COc1cc2c(cc1OC)[C@H]1[C@@H](C)c3ccc(OC)c(OC)c3CN1CC2 [CRDL, 14R,13S-(+)-corydaline]
[1]; IV 2 mg/kg, 0.083 hr, individual hamsters H1-H3, 2 mg/kg
  Concentration in plasma: 621.33 ng/mL and 520.38 ng/mL and 641.16 ng/mL
[1]; IV 2 mg/kg, 0.083 hr, mean
  Concentration in plasma: 594.29 ng/mL
[1]; IV 2 mg/kg, 0.25 hr, individual hamsters H1-H3, 2 mg/kg
  Concentration in plasma: 255.56 ng/mL and 350.21 ng/mL and 318.96 ng/mL
[1]; IV 2 mg/kg, 0.25 hr, mean
  Concentration in plasma: 308.25 ng/mL
[1]; IV 2 mg/kg, 0.5 hr, individual hamsters H1-H3, 2 mg/kg
  Concentration in plasma: 124.95 ng/mL and 165.87 ng/mL and 130.79 ng/mL
[1]; IV 2 mg/kg, 0.5 hr, mean
  Concentration in plasma: 140.54 ng/mL
[1]; IV 2 mg/kg, 1 hr, individual hamsters H1-H3, 2 mg/kg
  Concentration in plasma: 60.71 ng/mL and 69.78 ng/mL and 69.09 ng/mL
[1]; IV 2 mg/kg, 1 hr, mean
  Concentration in plasma: 66.53 ng/mL
[1]; IV 2 mg/kg, 2 hr, individual hamsters H1-H3, 2 mg/kg
  Concentration in plasma: 23.92 ng/mL and 19.37 ng/mL and 27.99 ng/mL
[1]; IV 2 mg/kg, 2 hr, mean
  Concentration in plasma: 23.76 ng/mL
[1]; IV 2 mg/kg, 6 hr, individual hamsters H1-H3, 2 mg/kg
  Concentration in plasma: 6.34 ng/mL and 4.76 ng/mL and 4.67 ng/mL
[1]; IV 2 mg/kg, 6 hr, mean
  Concentration in plasma: 5.25 ng/mL
[1]; IV 2 mg/kg, 24 hr, individual hamsters H1-H3
  Concentration in plasma: BLQ
[1]; IV (2 mg/kg), individual hamsters H1-H3
  Tmax: 0.08 h
[1]; [5]
  AUC(0-t): 364.46 ng·h/mL and 335.91 ng·h/mL and 336.84 ng·h/mL
  AUC(0-∞): 374 ng·h/mL and 351 ng·h/mL and 345 ng·h/mL
  CLz: 89.2 mL/min/kg and 95 mL/min/kg and 96.7 mL/min/kg
  Cmax: 641.16 ng/mL and 621.33 ng/mL and 520.38 ng/mL
  MRT(0-∞): 0.98 h and 1.17 h and 0.94 h
  Vz: 10.44 L/kg and 13.64 L/kg and 9.96 L/kg
  t1/2z: 1.35 h and 1.66 h and 1.19 h
[1]; IV (2 mg/kg), mean
  AUC(0-t): 345.74 ng·h/mL
  AUC(0-∞): 357 ng·h/mL
  Cmax: 594.29 ng/mL
  MRT(0-∞): 1.03 h
  Tmax: 0.08 h
  Vz: 11.35 L/kg
  t1/2z (half life): 1.4 h
[1]; IV (2 mg/kg), mean, 2 mg/kg
  CLz (clearance): 93.3 mL/min/kg and 93.7 mL/min/kg
[1]; PO 20 mg/kg, 0.25 hr, individual hamsters H4-H6, 20 mg/kg
  Concentration in plasma: 1263.21 ng/mL and 895.64 ng/mL and 1308.39 ng/mL
[1]; PO 20 mg/kg, 0.25 hr, mean
  Concentration in plasma: 1155.75 ng/mL
[1]; PO 20 mg/kg, 0.75 hr, individual hamsters H4-H6, 20 mg/kg
  Concentration in plasma: 369.71 ng/mL and 164.19 ng/mL and 217.42 ng/mL
[1]; PO 20 mg/kg, 0.75 hr, mean
  Concentration in plasma: 250.44 ng/mL
[1]; PO 20 mg/kg, 1 hr, individual hamsters H4-H6, 20 mg/kg
  Concentration in plasma: 254.54 ng/mL and 146.76 ng/mL and 199.83 ng/mL
[1]; PO 20 mg/kg, 1 hr, mean
  Concentration in plasma: 200.37 ng/mL
[1]; PO 20 mg/kg, 2 hr, individual hamsters H4-H6, 20 mg/kg
  Concentration in plasma: 98.97 ng/mL and 62.78 ng/mL and 81.27 ng/mL
[1]; PO 20 mg/kg, 2 hr, mean
  Concentration in plasma: 81.01 ng/mL
[1]; PO 20 mg/kg, 6 hr, individual hamsters H4-H6, 20 mg/kg
  Concentration in plasma: 14.54 ng/mL and 9.66 ng/mL and 20.83 ng/mL
[1]; PO 20 mg/kg, 6 hr, mean
  Concentration in plasma: 15.01 ng/mL
[1]; PO 20 mg/kg, 8 hr, individual hamsters H4-H6, 20 mg/kg
  Concentration in plasma: 10.93 ng/mL and 6.80 ng/mL and 18.54 ng/mL
[1]; PO 20 mg/kg, 8 hr, mean
  Concentration in plasma: 12.09 ng/mL
[1]; PO 20 mg/kg, 24 hr, individual hamsters H4-H6, 20 mg/kg
  Concentration in plasma: 3.41 ng/mL and 2.64 ng/mL and 3.12 ng/mL
[1]; PO 20 mg/kg, 24 hr, mean
  Concentration in plasma: 3.04 ng/mL
[1]; individual hamsters H4-H6
  F: 34.56% and 22.28% and 33.19%
[1]; mean
  F: 30.01%
[1]; PO (20 mg/kg), individual hamsters H4-H6
  Tmax: 0.25 h
[1]; [6]
  AUC(0-t): 1188.19 ng·h/mL and 756.88 ng·h/mL and 1154.55 ng·h/mL
  AUC(0-∞): 1230 ng·h/mL and 795 ng·h/mL and 1180 ng·h/mL
  Cmax: 1263.21 ng/mL and 895.64 ng/mL and 1308.39 ng/mL
  MRT(0-∞): 3.41 h and 3.96 h and 3.37 h
  t1/2z: 8.94 h and 10.13 h and 6.43 h
[1]; PO (20 mg/kg), mean
  AUC(0-t): 1033.21 ng·h/mL
  AUC(0-∞): 1070 ng·h/mL
  Cmax: 1155.75 ng/mL
  MRT(0-∞): 3.58 h
  Tmax: ~0.25 h
  t1/2z: 8.50 h
[2]
  adverse effects during the drug treatment: no adverse effects were observed
[2]; HC diet
  blood level of glucose: not changed
  blood level of urea nitrogen (BUN): not changed
[2]; HC diet, compared to control
  lowering of serum level of ALT: 60%
  lowering of serum level of AST: 30%
[2]; [7]
  reduction of plasma TC: 41.9%
  reduction of plasma TG: 46.0%
  reduction of plasma non-HDL-c: 50%
[2]; HC diet, p<0.001
  reduction of level of creatinine (CREA): 20%
[3]; 4 weeks, 75 mg/kg daily orally, high fat and high cholesterol diet
  body weight: maintained constant
[3]; [8]
  LDL-c level, % of control: 25.6%
  LDL-c level, % of day 0: 22.4%
  TC, % compared to the control group: 33.8%
  TC, % of the pretreatment level: 33.0%
  TG level, % of the control: 29%
  TG level, % of the pretreatment level (day 0): 27%
  adverse effects during the entire treatment: No any adverse effects were observed
[3]; [9]
  blood glucose level: not changed
  kidney function (BUN, CREA): not changed
[3]; [10]
  serum level of ALT: statistically lower
  serum level of AST: statistically lower
[4]
  LDLR mRNA expression: potent and dose-dependent effects
